Data from patent US20080187575A1 (priority 2004, published 2008).

Test system: pathogenic form of the prion protein PrP^Sc in prion infected cells (3F4-ScN2a)
Assay type: cell-based, mouse
Conditions: for amount of PrP^Sc in prion infected cells: concentration range between 5 and 20 μM (final concentration), three days; for activity of prion propagation (FIG. 5): within concentration range 5 to 20 μM

Cc1ccc(NC(=O)c2ccc(CCl)cc2)cc1Nc1nccc(-c2cccnc2)n1 [Compound 5, 4-Chloromethyl-N-[4-methyl-3-(4-pyridin-3-yl-pyrimidin-2-ylamino)-phenyl]-benzamide]
amount of PrP^Sc in prion infected cells: significantly reduced | activity of prion propagation (FIG. 5): inhibit almost completely

Cc1ccc(N)cc1Nc1nccc(-c2cccnc2)n1 [Compound 4, 4-Methyl-N-3-(4-pyridin-3-yl-pyrimidin-2-yl)-benzene-1,3-diamine]
amount of PrP^Sc in prion infected cells: significantly reduced | activity of prion propagation (FIG. 5): inhibit almost completely

O=S(=O)(Nc1cccc(Nc2nccc(-c3ccncc3)n2)c1)c1ccc(Cl)cc1 [Compound 37, 4-Chloro-N-[3-(4-pyridin-4-yl-pyrimidin-2-ylamino)-phenyl]-benzenesulfonamide]
amount of PrP^Sc in prion infected cells: significantly reduced | activity of prion propagation (FIG. 5): inhibit almost completely
